This is an account of results in ChEMBL document CHEMBL5120920, “A Mitochondria-Targeted Phenylbutyric Acid Prodrug Confers Drastically Improved Anticancer Activities” (J Med Chem, 2022).

The term IC50 denotes the concentration that gives 50% inhibition. Usually Papp B→A stands for how fast a substance crosses the layer from the basolateral side. By efflux ratio is commonly meant the permeability from basolateral to apical divided by that in the opposite direction, in the common usage. For orientation: Papp A→B means the apparent permeability from the apical to the basolateral side of a cell layer.

Data set [1] has as its system A-375. The data set can be described thus: Antitumor activity against human A-375 cells implanted in BALB/c mouse assessed as tumor growth inhibition at 70 mg/kg, ip measured once every two days for 14 days. The conditions noted are these: time 14.0 day. It counts as functional, organism-based.
For data set [2], the system named is A-375. Kind of data set: Antitumor activity against human A-375 cells implanted in BALB/c mouse assessed as shrinkage of tumor tissue at 70 mg/kg, ip measured once every two days for 14 days. It counts as functional, organism-based. The conditions noted are these: time 14.0 day.
Data set [3] is described as follows: Toxicity in BALB/c mouse assessed as change in body weight at 70 mg/kg, iv measured once every two days for 7 days. It counts as organism-based. The conditions noted are these: in vivo, 168 h, time 7 day.
Data set [4] concerns A-375. The data set can be described thus: Antitumor activity against human A-375 cells implanted in BALB/c mouse assessed as reduction in tumor weight at 70 mg/kg, ip measured once every two days for 14 days. It counts as functional, organism-based. Conditions: time 14.0 day.
For data set [5], the system named is A549. Kind of data set: Antiproliferative activity against human A549 cells assessed as inhibition of cell viability incubated for 72 hrs by MTT assay. It counts as functional, cell-based. The conditions noted are these: A549, 72 h.
Data set [6] deals with A-375. The data set can be described thus: Induction of cell cycle arrest in human A-375 cells assessed as accumulation at G2 phase at 10 mM incubated for 24 hrs by PI staining based flow cytometry analysis (reference value: 7.92 %). It counts as functional. For orientation: In flow cytometry, cells or beads pass a laser one at a time.
The test system of data set [7] is A-375. Kind of data set: Induction of cell cycle arrest in human A-375 cells assessed as accumulation at S phase at 10 mM incubated for 24 hrs by PI staining based flow cytometry analysis (reference value: 24.01 %). It counts as functional.
Data set [8] is described as follows: Apparent permeability across basolateral to apical side in human Caco-2 cells at 2 uM measured after 2 hrs by LC-MS/MS analysis. It counts as ADME, cell-based. Background: Caco-2 cells form a polarised layer with tight junctions and transporters.
Data set [9] has as its system A-375. The data set can be described thus: Antiproliferative activity against human A-375 cells assessed as inhibition of cell viability incubated for 72 hrs by MTT assay. It counts as functional, cell-based. The conditions noted are these: A-375, 72 h.
In data set [10] the test system is A-375. The data set can be described thus: Effect on mitochondrial bio-energestics in human A-375 cells assessed as increase in OCR/ECRA ratio at 5 mM measured after 4 hrs. It counts as functional, cell-based.
For data set [11], the system named is A-375. The data set can be described thus: Induction of cell cycle arrest in human A-375 cells assessed as accumulation at G1 phase at 10 mM incubated for 24 hrs by PI staining based flow cytometry analysis (reference value: 68.07 %). It counts as functional.
Data set [12] concerns A-375. The data set can be described thus: Antitumor activity against human A-375 cells xenografted in nude mouse assessed as tumor inhibition ratio at 80 mg/kg, ip measured once every two days for 14 days. It counts as functional. The conditions noted are these: A-375, 336 h, time 14 day, read-out: TGI. For orientation: In xenograft studies the graft and the host belong to different species.

Data set [13] deals with MCF7. Kind of data set: Antiproliferative activity against human MCF7 cells assessed as inhibition of cell viability incubated for 72 hrs by MTT assay. The conditions noted are these: MCF7, 72 h. It counts as functional, cell-based.
For data set [14], the system named is A-375. The data set can be described thus: Inhibition of glycolysis in human A-375 cells assessed as reduction in extracellular acidification rate at 5 mM measured after 4 hrs. It counts as functional, cell-based.
Data set [15] in a line: Efflux ratio of apparent permeability from basolateral to apical side over apical to basolateral side in human Caco2 cells by LC-MS/MS analysis. It counts as ADME, cell-based. The conditions noted are these: Caco-2.
Data set [16] has as its system MDA-MB-231. The data set can be described thus: Antiproliferative activity against human MDA-MB-231 cells assessed as inhibition of cell viability incubated for 72 hrs by MTT assay. It counts as functional, cell-based. The conditions noted are these: MDA-MB-231, 72 h.
Data set [17] in a line: Apparent permeability across apical to basolateral side in human Caco-2 cells at 2 uM measured after 2 hrs by LC-MS/MS analysis. It counts as ADME, cell-based.
The test system of data set [18] is A-375. Kind of data set: Antitumor activity against human A-375 cells implanted in BALB/c mouse assessed as shrinkage of tumor tissue at 20 mg/kg, ip measured once every two days for 14 days. It counts as functional, organism-based. Conditions: time 14.0 day.
In data set [19] the test system is A-375. The data set can be described thus: Antitumor activity against human A-375 cells implanted in BALB/c mouse assessed as suppression of tumor growth at 20 mg/kg, ip measured once every two days for 14 days. The conditions noted are these: time 14.0 day. It counts as functional, organism-based.
Data set [20] concerns A-375. The data set can be described thus: Antitumor activity against human A-375 cells implanted in BALB/c mouse assessed as reduction in tumor weight at 20 mg/kg, ip measured once every two days for 14 days. It counts as functional, organism-based. The conditions noted are these: time 14.0 day.
Data set [21] is described as follows: Toxicity in BALB/c mouse assessed as change in body weight at 20 mg/kg, iv measured once every two days for 7 days. It counts as organism-based. Conditions: in vivo, 168 h, time 7 day.

The source made the active and inactive calls. The rule behind the calls is not given here.

For `CN(C)/N=N/c1[nH]cnc1C(N)=O` [DACARBAZINE], the result in data set [1], in data set [2] and in [4] was Active. Besides, the Activity result in data set [3] is on record as “Toxic”.
Regarding `O=C(O)CCCc1ccccc1`, the 50% inhibitory concentration (IC50) was determined as 9.75 mM in data set [5], 8.94 mM in [9], 10.7 mM in data set [13] and 11.7 mM in data set [16]. Further, the Activity in [6] is on record as 5.38%; in [7], 7.4%; in [11], 87.33%. In addition, the apparent permeability from basolateral to apical (Papp B→A) at 2 h, 2 µM in data set [8] was 0.74 ×10⁻⁶ cm/s. Besides, the result in data set [10] was Active. Also, in data set [12], the inhibition in vivo at 80 mg/kg came out at 10%. The inhibition entry in [14] is “Active”. In data set [15], the efflux ratio was greater than 1.54. The Papp A→B at 2 h, 2 µM in data set [17] is less than 0.48 ×10⁻⁶ cm/s.
On to `CCCS(=O)(=O)Nc1ccc(F)c(C(=O)c2c[nH]c3ncc(-c4ccc(Cl)cc4)cc23)c1F` [VEMURAFENIB], for which the outcome in data set [18], in data set [19] and in data set [20] was Active. In data set [21], the Activity entry is “Non-Toxic”.
